# Experimental data reported in patent publication US20190343801A1, “COMPOSITIONS AND METHODS FOR CONTROLLING NATURAL KILLER CELL ACTIVATION AND FUNCTION” (BAR ILAN UNIVERSITY, priority 2017, published 2019).
# Where no end group is shown, it is not given here.
# B1: WT β-actin derived peptide containing an ITIM motif (…) (peptide)
# peptide: KEKLCYVALDF
# How the values were obtained:
# [1] = system: myosin superfamily members from classes I, V, and X; settings: cited from earlier work
# [2] = system: smooth muscle; settings: cited from earlier work
# [3] = system: SHP-1: β-actin complex; test: SHP-1 immunoprecipitation and anti-β-actin immunoblotting in YTS-2DL1 cells incubated with target cells; assay type: cell-based; settings: inhibitory 221-Cw4 cells; 0.5 μM CytD
# Experimental: YTS-2DL1 cells were incubated at 37° C. with 221-Cw4 or Cw7 cells for 5 min, 1 μM of JAS was added, and cells were incubated for 5 min. Cell lysates were subjected to IP of SHP-1 and IB with anti-β-actin or anti-SHP-1 antibodies. Shown data represent at least three independent experiments.
# In FIG. 8D, YTS-2DL1 cells were incubated at 37° C. with 221-Cw4 or Cw7 cells for 5 min, 0.5 μM of CytD was added, and the cells were incubated for an additional 5 min. The cells were lysed, and IPs of SHP-1 were subjected to IB using anti-β-actin or anti-SHP-1. Results shown are representative of three independent experiments.
# NK cells (primary or YTS) and ‘221’ target cells (either expressing HLA-Cw4, Cw7 or no HLA) were first incubated separately on ice for 10 min, at a ratio of 1:1. The cells were then mixed, centrifuged and kept on ice for 15 min. The cell mixture was then transferred to 37° C., for the indicated period of time, and subsequently lysed with ice-cold lysis buffer.
# For analysis of whole cell lysates, 1-10×10^5 cells were used, and for IP experiments, 10-15×10^6 cells were used. Protein A/G plus-Agarose beads (Santa Cruz Biotechnology) were used for IP. […] Immunoreactive proteins were detected with either anti-mouse or anti-rabbit horseradish peroxidase-coupled secondary antibody followed by detection by enhanced chemiluminescence (PerkinElmer).
# [4] = system: SHP-1; test: PTP assay: SHP-1 catalytic activity (pNPP hydrolysis) after treatment of NK-target cell conjugates; assay type: cell-based; settings: YTS-2DL1 + 221-Cw4, untreated 100%; 0.5 μM CytD
# Experimental: YTS-2DL1 cells were pretreated with 25 μM Y-27 or left untreated. Cells were incubated at 37° C. with target cells for 5 min, 1 μM of JAS was added, and samples were incubated for 5 minutes before lysis. IP of SHP-1 was performed, and precipitates were incubated with pNpp. SHP-1 activity was determined by measuring absorbance at 405 nm. The graph represents rates of SHP-1 catalytic activity from three independent experiments.
# In FIG. 8E, YTS-2DL1 cells were incubated at 37° C. with 221-Cw4 or Cw7 cells for 5 min, treated with 0.5 μM of CytD or left untreated, and SHP-1 activity was determined as detailed in the Materials and Methods. Graph summarizing percent of relative SHP-1 catalytic activity obtained by four independent experiments. Data are means±SEM.
# SHP-1 catalytic activity was determined by measuring the hydrolysis of the exogenous substrate p-Nitrophenyl Phosphate (pNPP) by SHP-1, as previously described. NK cells (2-5×10^6) were incubated with target cells at ratio of 1:1, activated as described above, and lysed with passive ice-cold lysis buffer (1% Brij, 1% n-Octyl-b-D-glucoside, 50 mM Tris-HCl, pH 7.4, 150 mM NaCl, 5 mM ethylenediaminetetraacetic acid, and complete protease inhibitor tablets). Cell lysates were subjected to IP with anti-SHP-1 antibody. […] Reactions were terminated by adding 800 μl 1M NaOH, and SHP-1 activity was determined by measuring absorbance at 405 nm.
# [5] = system: F-actin retrograde flow in YTS and pNK F-tractin GFP cells; test: Live cell imaging and kymograph analysis of F-actin retrograde flow (ARF) in F-tractin GFP NK cells; assay type: cell-based; settings: 0.5 μM CytD, anti-CD28 or anti-KIR2DL1
# From the text: FIGS. […] In FIG. 5A, YTS F-tractin GFP cells were dropped over coverslips coated with anti-CD28 or anti-KIR1 antibodies, and imaged at 1 frame/sec through a single focal plane. […] Representative images are shown. Kymographs of F-actin dynamics were compiled along the contact site radius. […]
# The y axis represents F-actin velocity (μm/sec), and the x axis—time from initial spreading (sec).
# FIGS. 5E-5H. show analyses of NKIS area and ARF in the activating vs. inhibitory NKIS in the presence of Y-27632 (Y-27) inhibitor of myosin light chain (MLC) phosphorylation and/or JAS. […] NKIS area was determined using ImageJ. […]
# Analyses of actin and SHP-1 dynamics were performed by preparing kymographs from live cell videos and tracing the movement of the fluorescently tagged proteins. […] Velocity over distance from the center was determined by calculating the velocity of the tracked protein based on the distance traversed to time between each two points on the trace, and noting the relative location from the center of the measured area. […] For each bin, average velocity and standard error were calculated. Average distance traversed over time was calculated by measuring the location of the trace, relative to its point of origin at each time point after the beginning of the trace. For each relative time point from the beginning of a trace, an average distance and standard error were calculated. […]
# [6] = biological target: T1, SHP-1 (Homo sapiens, UniProt P29350); test: MST analysis for the binding of YFP-SHP-1 and actin-derived peptides; settings: for binding to SHP-1: lysates of HEK 293T cells expressing YFP-SHP-1, peptides 400 μM-48 nM
# T1 construct: expressed in transfected cells; host or cells: HEK 293T cells, unpurified lysate
# From the text: Binding curves were generated by the NanoTemper analysis software (MO.Affinity Analysis v2.1.3). The graph summarizes the changes of the fluorescent thermophoresis signals as a function of peptide concentration from at least three independent experiments. Data are means±SD.
# YFP-tagged SHP-1 was obtained from cell lysates of Human Embryonic Kidney (HEK) 293T cells, transiently transfected with YFP-SHP-1 by DNA-calcium phosphate co-precipitation, as previously described (Reicher B, et al (2012) Molecular and cellular biology 15: 3153-3163). MST measurements were performed using the protein purification-free method described by Khavrutskii et al. (Khavrutskii L, et al (2013) Journal of visualized experiments: JoVE). Briefly, each peptide (Synpeptide) was initially dissolved in Dimethylformamide (DMF), diluted in DDW (supplemented with 1 mM DTT) to reach stock concentration of 80004, and serially diluted (range from 400 μM to 48.8 nM) in HEPES buffer (50 mM, supplemented with 0.05% Tween-20 and 1 mM DTT) in 200 μL PCR-tubes. Then, YFP-SHP-1-containing cell lysate was added to the serially diluted tubes at a 1:1 ratio and the samples were gently mixed. The samples were allowed to incubate at room temperature for 30 min before being loaded into standard-treated Monolith™ capillaries (NanoTemper). After loading into the instrument (Monolith NT.115, NanoTemper), microthermophoresis was carried out using 40% LED power and 40% MST power. The changes of the fluorescent thermophoresis signals were plotted against the concentration of the serially diluted peptides. KD values were determined using the NanoTemper analysis software (MO.Affinity Analysis v2.1.3).
# The SHP-1-β-actin complex formation was also examined using microscale thermophoresis (MST) technology. […] Lysates of HEK 293T cells transiently expressing YFP-SHP-1 were incubated with decreasing concentrations of the different peptides followed by MST analysis.
# [7] = biological target: CFP-actin (UniProt P60709); test: FRET between YFP-SHP-1 and CFP-actin in YTS cells at the activating NKIS (221-Cw7 target cells)
# [8] = biological target: CFP-actin (UniProt P60709); test: FRET between YFP-SHP-1 and CFP-actin in YTS cells at the inhibitory NKIS (221-Cw4 target cells)
# [9] = biological target: YFP-SHP-1 (human SHP-1 wt tagged with YFP) (human) (UniProt P29350); test: MST, lysate of 293T cells expressing YFP-SHP-1 with serially diluted peptide
# [10] = biological target: YFP-SHP-1 (human SHP-1 wt tagged with YFP) (human) (UniProt P29350); test: MST, peptide titrated into lysate of HEK 293T cells expressing YFP-SHP-1
# T1 sequence (P29350 whole entry): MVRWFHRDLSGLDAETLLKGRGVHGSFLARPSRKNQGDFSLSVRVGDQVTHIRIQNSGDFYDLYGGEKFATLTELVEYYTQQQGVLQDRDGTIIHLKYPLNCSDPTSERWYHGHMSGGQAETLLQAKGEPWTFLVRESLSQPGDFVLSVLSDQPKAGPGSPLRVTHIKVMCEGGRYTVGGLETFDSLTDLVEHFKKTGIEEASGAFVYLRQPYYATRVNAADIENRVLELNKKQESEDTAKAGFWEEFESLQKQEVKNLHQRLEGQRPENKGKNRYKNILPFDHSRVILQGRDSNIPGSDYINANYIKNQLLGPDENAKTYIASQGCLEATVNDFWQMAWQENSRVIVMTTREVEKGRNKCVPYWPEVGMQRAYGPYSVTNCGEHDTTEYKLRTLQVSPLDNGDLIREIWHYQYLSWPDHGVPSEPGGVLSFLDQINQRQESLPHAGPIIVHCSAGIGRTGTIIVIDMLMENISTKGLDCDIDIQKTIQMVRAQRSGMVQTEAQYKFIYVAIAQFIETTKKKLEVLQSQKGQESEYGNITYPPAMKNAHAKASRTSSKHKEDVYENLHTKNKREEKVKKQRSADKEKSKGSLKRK
molecule,measurement,setting,value
Cc1ccc2c(c1)C(=O)C1(O)CCN(c3ccccc3)C1=N2 (stereo not drawn) [Blebbistatin],inhibition,[1],does not inhibit
same,IC50,[2],80 µM
"C=C1[C@@H](C)[C@H]2C(Cc3ccccc3)NC(=O)[C@]23[C@H](OC(C)=O)/C=C/[C@@](C)(O)C(=O)[C@@H](C)C/C=C/[C@H]3[C@@H]1O (stereo partly drawn) [CytD, Cytochalasin D]",SHP-1 binding to β-actin,[3],increased binding of SHP-1 to β-actin
same,relative SHP-1 catalytic activity,[4],55.4±8.4%
same,ARF velocity at the LP,[5],significant reduction in ARF velocity
EYQKASGVSG (irrelevant control peptide),binding to SHP-1,[6],no binding was detected
"KEKLCFVALDF (mutant actin peptide) [Y-F mutant, single aa mutant form of the β-actin peptide, tyrosine to phenylalanine substitution]",binding to SHP-1,[6],no binding was detected
"KEKLCYVALDF [WT actin peptide, KEKLCYVALDF]",Kd,[6],39.5 ± 6.2 µM
YFP-SHP-1 (human SHP-1 wt tagged with YFP) (from UniProt P29350 1-595) (enzyme),FRET efficiency,[7],8.5%
same,FRET efficiency,[8],18.9%
B1,EC50 (read off the curve),[9],40 µM
same,Kd,[10],39.5 µM
